Experimental data from ChEMBL document CHEMBL4823249, “Discovery of a Pyrimidinedione Derivative as a Potent and Orally Bioavailable Axl Inhibitor” (J Med Chem, 2021).
Activity calls are given as the source filed them. The calls are words filed in the database; no cut-off is given here.

Assays:
[1] = system: NCI-H1299; test: Antiproliferative activity against human NCI-H1299 cells incubated for 72 hrs by SRB or CCK8 assay; assay type: functional, cell-based; conditions: NCI-H1299, 72 h
[2] = molecular target: Insulin-like growth factor 1 receptor (Homo sapiens, UniProt P08069); test: Inhibition of human IGF1R (959 to end residues) using KKKSPGEYVNIEFG as substrate after 40 mins in presence of [gamma-33ATP] by scintillation counting based radiometry assay
[3] = system: HT-29; test: Antiproliferative activity against human HT-29 cells incubated for 72 hrs by SRB or CCK8 assay; assay type: functional, cell-based; conditions: HT-29, 72 h
[4] = system: MM1.S; test: Antiproliferative activity against human MM1.S cells incubated for 72 hrs by SRB or CCK8 assay; assay type: functional, cell-based
[5] = molecular target: CDK12/Cyclin K (Homo sapiens, UniProt Q9NYV4); test: Inhibition of recombinant full length human CDK12/CyclinK using RSRSRSRSRSRSR as substrate incubated for 40 mins in presence of [gamma-33ATP] by scintillation counting based radiometry assay; assay type: protein-complex assay
[6] = system: MKN-45; test: Antiproliferative activity against human MKN-45 cells incubated for 72 hrs by SRB or CCK8 assay; assay type: functional, cell-based; conditions: MKN-45, 72 h
[7] = molecular target: Mitogen-activated protein kinase kinase kinase kinase 2 (Homo sapiens, UniProt Q12851); test: Inhibition of recombinant human GCK (1 to 473 residues) using myelin basic protein as substrate incubated for 40 mins in presence of [gamma-33ATP] by scintillation counting based radiometry assay
[8] = system: MDA-MB-231; test: Antiproliferative activity against human MDA-MB-231 cells incubated for 72 hrs by SRB or CCK8 assay; assay type: functional, cell-based; conditions: MDA-MB-231, 72 h
[9] = molecular target: Platelet-derived growth factor receptor alpha (Homo sapiens, UniProt P16234); test: Inhibition of human PDGFRalpha (550 to end residues) using poly(Glu, Tyr) 4:1 as substrate measured after 40 mins in presence of [gamma33P]ATP by scintillation counting based radiometry assay
[10] = system: BT-474; test: Antiproliferative activity against human BT-474 cells incubated for 72 hrs by SRB or CCK8 assay; assay type: functional, cell-based; conditions: BT-474, 72 h
[11] = molecular target: T1, Hepatocyte growth factor receptor (Homo sapiens, UniProt P08581); test: Inhibition of MET signaling in human EBC1 cells assessed as reduction in phosphorylation of MET after 2 hrs by Western blotting analysis; assay type: cell-based; conditions: EBC-1, dose 10-100 nM
[12] = molecular target: Tyrosine-protein kinase JAK3 (Homo sapiens, UniProt P52333); test: Inhibition of recombinant human JAK3 (781 to end residues) using GGEEEEYFELVKKKK as substrate measured after 40 mins in presence of [gamm33P]ATP by scintillation counting method
[13] = molecular target: Ribosomal protein S6 kinase alpha-1 (Homo sapiens, UniProt Q15418); test: Inhibition of recombinant full length human Rsk1 using KKKNRTLSVA as substrate incubated for 40 mins in presence of [gamma33P]ATP by scintillation counting based radiometry assay
[14] = system: BaF3; test: Antiproliferative activity against mouse BaF3/TEL-AXL cells incubated for 72 hrs by SRB or CCK8 assay; conditions: BaF3, 72 h
[15] = molecular target: Platelet-derived growth factor receptor beta (Homo sapiens, UniProt P09619); test: Inhibition of human PDGFRbeta (557 to end residues) using poly(Glu, Tyr) 4:1 as substrate measured after 40 mins in presence of [gamma33P]ATP by scintillation counting based radiometry assay
[16] = system: RT-112; test: Antiproliferative activity against human RT-112 cells incubated for 72 hrs by SRB or CCK8 assay; assay type: functional, cell-based; conditions: RT-112, 72 h
[17] = Cmax in ICR mouse at 3 mg/kg, po measured upto 24 hrs by LC-MS analysis; assay type: ADME, organism-based; design: route oral, dose 3 mg/kg, time <=24; conditions: in vivo
[18] = molecular target: Dual specificity mitogen-activated protein kinase kinase 1 (Homo sapiens, UniProt Q02750); test: Inhibition of recombinant human MEK1 using inactive MAPK2 as substrate incubated for 40 mins in presence of [gamma-33ATP] by scintillation counting based radiometry assay
[19] = Cmax in Sprague-Dawley rat at 3 mg/kg, po measured upto 24 hrs by LC-MS analysis; assay type: ADME, organism-based; design: route oral, dose 3 mg/kg, time <=24; conditions: in vivo
[20] = molecular target: Calcium/calmodulin-dependent protein kinase type 1 (Homo sapiens, UniProt Q14012); test: Inhibition of recombinant human CaMK1 (2 to end residues) using […] as substrate incubated for 40 mins in presence of [gamma-33ATP] by scintillation counting based radiometry assay
[21] = Half life in ICR mouse at 1 mg/kg, iv measured upto 24 hrs by LC-MS analysis; assay type: ADME, organism-based; conditions: in vivo
[22] = AUC(0 to t) in Sprague-Dawley rat at 3 mg/kg, po measured upto 24 hrs by LC-MS analysis; assay type: ADME, organism-based; design: route oral, dose 3 mg/kg, time <=24; conditions: in vivo
[23] = molecular target: Tyrosine-protein kinase BTK (Homo sapiens, UniProt Q06187); test: Inhibition of full length recombinant human BTK using KVEKIGEGTYGVVYK as substrate incubated for 40 mins in presence of [gamma-33P]-ATP by scintillation counting based radiometry assay
[24] = molecular target: Cyclin-dependent kinase 1/cyclin B1 (Homo sapiens, UniProt P06493); test: Inhibition of recombinant full length human CDK1/CyclinB using Histone H1 as substrate incubated for 40 mins in presence of [gamma-33ATP] by scintillation counting based radiometry assay; assay type: protein-complex assay
[25] = molecular target: T1, Hepatocyte growth factor receptor; test: Inhibition of recombinant human MET (974 to end residues) using KKKGQEEEYVFIE as substrate incubated for 40 mins in presence of [gamma-33ATP by scintillation counting based radiometry assay
[26] = molecular target: T1, Hepatocyte growth factor receptor; test: Inhibition of MET signaling in human MKN45 cells assessed as reduction in phosphorylation of AKT after 2 hrs by Western blotting analysis; assay type: cell-based; conditions: MKN-45, dose 10-100 nM
[27] = system: KMS-11; test: Antiproliferative activity against human KMS-11 cells incubated for 72 hrs by SRB or CCK8 assay; assay type: functional, cell-based; conditions: KMS-11, 72 h
[28] = molecular target: Focal adhesion kinase 1 (Homo sapiens, UniProt Q05397); test: Inhibition of human recombinant FAK1 (411 to 686 residues) using EEEEYEEEEEEYY as substrate incubated for 40 mins in presence of [gamma-33ATP] by radiometric scintillation counting analysis
[29] = system: SNU-449; test: Antiproliferative activity against human SNU-449 cells at 5 to 125 uM incubated for 72 hrs by SRB or CCK8 assay; assay type: functional, cell-based; conditions: dose 5-125 µM
[30] = molecular target: Fibroblast growth factor receptor 1 (Homo sapiens, UniProt P11362); test: Inhibition of recombinant human FGFR1 (456 to 765 residues) using KKKSPGEYVNIEF as substrate incubated for 40 mins in presence of [gamma-33ATP] by radiometric scintillation counting analysis
[31] = system: HCC4006; test: Antiproliferative activity against human HCC4006 cells incubated for 72 hrs by SRB or CCK8 assay; assay type: functional, cell-based; conditions: HCC4006, 72 h
[32] = AUC(0 to t) in ICR mouse at 1 mg/kg, iv measured upto 24 hrs by LC-MS analysis; assay type: ADME, organism-based; design: route intravenous, dose 1 mg/kg, time <=24; conditions: in vivo
[33] = Antiproliferative activity against human JHH7 cells incubated for 72 hrs by SRB or CCK8 assay; assay type: functional, cell-based; conditions: JHH7, 72 h

T1 sequence (P08581 whole entry): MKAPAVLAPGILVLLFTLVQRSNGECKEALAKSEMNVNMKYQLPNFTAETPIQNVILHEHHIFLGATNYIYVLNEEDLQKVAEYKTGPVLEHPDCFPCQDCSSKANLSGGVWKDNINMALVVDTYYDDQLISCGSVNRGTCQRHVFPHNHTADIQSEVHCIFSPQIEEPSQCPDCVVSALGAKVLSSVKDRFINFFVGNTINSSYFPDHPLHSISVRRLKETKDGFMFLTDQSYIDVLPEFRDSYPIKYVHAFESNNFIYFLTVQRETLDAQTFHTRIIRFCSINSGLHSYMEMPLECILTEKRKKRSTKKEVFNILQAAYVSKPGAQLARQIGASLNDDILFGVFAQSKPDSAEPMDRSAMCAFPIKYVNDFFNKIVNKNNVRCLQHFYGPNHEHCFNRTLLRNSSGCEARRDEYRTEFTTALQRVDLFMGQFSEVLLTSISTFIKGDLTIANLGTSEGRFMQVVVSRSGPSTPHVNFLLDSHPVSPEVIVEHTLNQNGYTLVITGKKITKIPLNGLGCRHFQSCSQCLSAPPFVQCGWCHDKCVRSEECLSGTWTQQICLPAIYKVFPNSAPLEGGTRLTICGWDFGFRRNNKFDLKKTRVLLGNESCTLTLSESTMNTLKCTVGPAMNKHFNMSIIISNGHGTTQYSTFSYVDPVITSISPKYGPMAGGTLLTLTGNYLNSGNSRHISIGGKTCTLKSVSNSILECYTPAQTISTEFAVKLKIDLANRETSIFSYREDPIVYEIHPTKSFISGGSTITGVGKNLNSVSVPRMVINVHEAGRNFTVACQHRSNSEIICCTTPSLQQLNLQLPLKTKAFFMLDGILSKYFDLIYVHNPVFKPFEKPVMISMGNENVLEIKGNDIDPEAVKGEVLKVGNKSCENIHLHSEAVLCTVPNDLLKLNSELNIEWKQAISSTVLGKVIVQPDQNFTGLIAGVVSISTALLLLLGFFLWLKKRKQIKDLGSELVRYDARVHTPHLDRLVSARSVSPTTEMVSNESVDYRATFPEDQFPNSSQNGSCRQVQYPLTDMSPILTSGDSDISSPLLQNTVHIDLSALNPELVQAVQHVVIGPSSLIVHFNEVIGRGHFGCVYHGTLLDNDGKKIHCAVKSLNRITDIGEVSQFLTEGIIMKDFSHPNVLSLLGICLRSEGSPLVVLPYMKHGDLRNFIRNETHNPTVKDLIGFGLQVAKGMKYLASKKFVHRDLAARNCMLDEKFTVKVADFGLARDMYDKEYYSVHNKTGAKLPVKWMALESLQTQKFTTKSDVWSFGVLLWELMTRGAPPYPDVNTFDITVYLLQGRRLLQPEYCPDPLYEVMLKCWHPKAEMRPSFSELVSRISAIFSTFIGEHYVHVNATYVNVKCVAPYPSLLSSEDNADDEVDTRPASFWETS
Fibroblast growth factor receptor 1, sequence (P11362 whole entry, the tested form may be a part): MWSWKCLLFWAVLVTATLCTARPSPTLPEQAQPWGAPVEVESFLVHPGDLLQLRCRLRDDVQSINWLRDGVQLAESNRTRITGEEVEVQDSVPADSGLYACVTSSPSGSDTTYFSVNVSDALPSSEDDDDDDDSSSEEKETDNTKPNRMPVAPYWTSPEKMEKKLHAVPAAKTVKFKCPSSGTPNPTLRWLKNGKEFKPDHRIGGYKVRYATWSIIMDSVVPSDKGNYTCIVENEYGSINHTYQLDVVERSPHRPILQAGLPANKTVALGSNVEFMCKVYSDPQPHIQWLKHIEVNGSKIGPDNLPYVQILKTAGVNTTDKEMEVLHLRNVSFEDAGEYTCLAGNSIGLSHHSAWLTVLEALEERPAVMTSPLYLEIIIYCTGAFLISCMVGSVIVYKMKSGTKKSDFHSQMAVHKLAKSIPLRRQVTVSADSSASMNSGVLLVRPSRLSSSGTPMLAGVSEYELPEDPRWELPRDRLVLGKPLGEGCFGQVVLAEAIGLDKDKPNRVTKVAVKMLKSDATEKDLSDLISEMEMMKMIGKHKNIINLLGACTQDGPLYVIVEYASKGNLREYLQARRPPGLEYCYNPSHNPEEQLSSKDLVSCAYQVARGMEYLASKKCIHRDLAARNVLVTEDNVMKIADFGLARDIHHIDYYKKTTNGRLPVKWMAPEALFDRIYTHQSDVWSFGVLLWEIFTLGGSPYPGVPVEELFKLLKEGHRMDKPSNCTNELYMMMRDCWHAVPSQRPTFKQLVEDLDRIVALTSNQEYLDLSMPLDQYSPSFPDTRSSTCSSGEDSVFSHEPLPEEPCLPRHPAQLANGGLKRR
Tyrosine-protein kinase BTK, sequence (Q06187 whole entry): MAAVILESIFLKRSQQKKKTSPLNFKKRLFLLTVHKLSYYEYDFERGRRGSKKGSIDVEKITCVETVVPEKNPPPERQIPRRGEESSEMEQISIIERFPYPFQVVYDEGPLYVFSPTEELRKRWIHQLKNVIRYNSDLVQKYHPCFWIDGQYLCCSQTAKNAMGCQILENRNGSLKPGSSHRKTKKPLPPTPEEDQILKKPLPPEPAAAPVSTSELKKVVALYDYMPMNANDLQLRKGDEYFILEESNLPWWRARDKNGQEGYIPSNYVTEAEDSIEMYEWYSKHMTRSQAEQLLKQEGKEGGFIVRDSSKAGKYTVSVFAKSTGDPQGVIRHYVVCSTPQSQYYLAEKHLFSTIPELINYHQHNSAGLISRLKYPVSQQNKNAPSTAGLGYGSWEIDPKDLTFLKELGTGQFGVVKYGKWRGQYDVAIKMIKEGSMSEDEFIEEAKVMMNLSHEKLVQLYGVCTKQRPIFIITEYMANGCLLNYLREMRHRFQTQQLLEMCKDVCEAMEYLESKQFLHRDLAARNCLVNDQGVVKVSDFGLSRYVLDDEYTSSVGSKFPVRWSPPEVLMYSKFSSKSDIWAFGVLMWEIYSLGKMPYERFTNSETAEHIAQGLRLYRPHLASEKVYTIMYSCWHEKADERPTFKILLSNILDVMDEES
Insulin-like growth factor 1 receptor, sequence (P08069 31-736 limits assumed): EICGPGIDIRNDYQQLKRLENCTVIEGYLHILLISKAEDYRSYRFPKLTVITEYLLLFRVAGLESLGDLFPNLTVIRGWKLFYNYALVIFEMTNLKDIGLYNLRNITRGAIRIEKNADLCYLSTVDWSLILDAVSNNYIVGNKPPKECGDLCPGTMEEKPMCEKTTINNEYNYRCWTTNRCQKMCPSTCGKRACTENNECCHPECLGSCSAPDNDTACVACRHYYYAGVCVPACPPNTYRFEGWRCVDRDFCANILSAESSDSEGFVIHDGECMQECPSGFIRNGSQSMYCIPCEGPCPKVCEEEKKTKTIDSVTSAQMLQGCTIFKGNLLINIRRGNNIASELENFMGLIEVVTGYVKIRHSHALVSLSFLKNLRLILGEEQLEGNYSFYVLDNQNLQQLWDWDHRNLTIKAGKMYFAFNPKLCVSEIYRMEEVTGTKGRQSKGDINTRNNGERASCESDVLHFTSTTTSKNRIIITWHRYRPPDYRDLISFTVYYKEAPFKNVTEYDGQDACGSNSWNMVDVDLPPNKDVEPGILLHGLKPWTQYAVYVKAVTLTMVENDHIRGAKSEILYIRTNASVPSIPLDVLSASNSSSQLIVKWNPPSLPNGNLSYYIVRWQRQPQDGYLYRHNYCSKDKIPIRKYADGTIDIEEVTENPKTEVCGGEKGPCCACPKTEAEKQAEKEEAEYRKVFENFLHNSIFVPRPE
Insulin-like growth factor 1 receptor, sequence (P08069 741-1367 limits assumed): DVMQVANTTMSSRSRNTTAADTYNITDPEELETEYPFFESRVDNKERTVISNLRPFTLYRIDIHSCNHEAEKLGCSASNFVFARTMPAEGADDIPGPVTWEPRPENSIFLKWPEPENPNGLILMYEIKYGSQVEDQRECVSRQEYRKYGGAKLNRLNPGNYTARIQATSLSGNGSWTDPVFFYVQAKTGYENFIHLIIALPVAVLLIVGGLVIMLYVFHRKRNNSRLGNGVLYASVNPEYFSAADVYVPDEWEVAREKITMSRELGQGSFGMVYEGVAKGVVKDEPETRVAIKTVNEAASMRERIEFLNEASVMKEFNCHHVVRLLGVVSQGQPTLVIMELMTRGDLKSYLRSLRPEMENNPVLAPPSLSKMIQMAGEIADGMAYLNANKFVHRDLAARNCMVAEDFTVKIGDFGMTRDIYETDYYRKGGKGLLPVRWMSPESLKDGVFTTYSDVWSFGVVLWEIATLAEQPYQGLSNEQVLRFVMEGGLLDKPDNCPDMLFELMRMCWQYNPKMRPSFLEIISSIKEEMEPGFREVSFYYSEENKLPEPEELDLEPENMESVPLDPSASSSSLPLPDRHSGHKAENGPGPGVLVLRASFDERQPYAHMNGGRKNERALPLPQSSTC
Ribosomal protein S6 kinase alpha-1, sequence (Q15418 whole entry): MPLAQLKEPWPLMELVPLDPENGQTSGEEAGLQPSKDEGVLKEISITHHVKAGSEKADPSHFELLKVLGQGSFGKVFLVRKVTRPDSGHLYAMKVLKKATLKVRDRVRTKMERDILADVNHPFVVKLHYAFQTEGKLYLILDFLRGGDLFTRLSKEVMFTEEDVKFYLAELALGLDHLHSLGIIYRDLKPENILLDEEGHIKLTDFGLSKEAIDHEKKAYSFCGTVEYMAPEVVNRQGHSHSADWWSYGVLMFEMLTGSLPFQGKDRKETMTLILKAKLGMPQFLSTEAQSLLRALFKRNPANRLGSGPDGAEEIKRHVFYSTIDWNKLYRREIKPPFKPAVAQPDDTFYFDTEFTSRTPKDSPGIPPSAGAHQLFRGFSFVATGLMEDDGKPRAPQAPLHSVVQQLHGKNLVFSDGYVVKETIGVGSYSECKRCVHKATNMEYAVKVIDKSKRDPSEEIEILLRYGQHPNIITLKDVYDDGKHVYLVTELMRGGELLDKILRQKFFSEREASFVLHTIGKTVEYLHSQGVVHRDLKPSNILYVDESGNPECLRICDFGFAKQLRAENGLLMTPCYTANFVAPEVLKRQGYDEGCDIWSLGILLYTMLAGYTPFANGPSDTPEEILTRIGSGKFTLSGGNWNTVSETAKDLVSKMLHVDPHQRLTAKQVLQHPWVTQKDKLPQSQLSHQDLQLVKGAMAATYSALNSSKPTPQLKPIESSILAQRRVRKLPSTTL

CC(C)n1cc(C(=O)Nc2ccc(Oc3ccnc(NC(=O)C4CC4)c3)c(F)c2)c(=O)n(-c2ccc(F)cc2)c1=O
IC50 [1]: > 10000 nM | IC50 [2]: > 1000 nM | IC50 [3]: > 10000 nM | IC50 [4]: > 10000 nM | IC50 [5]: > 1000 nM | IC50 [6]: 107 nM | IC50 [7]: > 1000 nM | IC50 [8]: > 10000 nM | IC50 [9]: > 1000 nM | IC50 [10]: > 10000 nM | inhibition [11]: Dose-Dependent Effect | IC50 [12]: > 1000 nM | IC50 [13]: > 1000 nM | IC50 [14]: < 0.005 nM | IC50 [15]: > 1000 nM | IC50 [16]: > 10000 nM | Cmax [17]: 2990 ng/mL | IC50 [18]: > 1000 nM | Cmax [19]: 4560 ng/mL | IC50 [20]: > 1000 nM | half-life [21]: 5.57 h | AUC(0-t) at 24 h [22]: 32600 ng·h/mL | IC50 [23]: > 1000 nM | IC50 [24]: > 1000 nM | IC50 [25]: 0.8 nM | inhibition [26]: Dose-Dependent Effect | IC50 [27]: > 10000 nM | IC50 [28]: > 1000 nM | Activity [29]: inactive | IC50 [30]: > 1000 nM | IC50 [31]: > 10000 nM | AUC(0-t) at 24 h [32]: 7010 ng·h/mL | IC50 [33]: > 10000 nM
